Assay [1] has as its target T1, human 5HT2A receptor (Homo sapiens, UniProt P28223).
T1 construct: expressed in transfected cells
Description: Receptor Binding Assay, 5HT2A ([3H]N-methyl spiperone). To be noted: BHK cells expressing human 5HT2A receptor, 2.5 nM [3H]N-methyl spiperone, 37° C. Here is the method: Cell Culture: BHK cells stably expressing the human 5HT2A receptor were maintained in Dulbecco's Modified Eagle's Medium supplemented with […] Geneticin, 1% Sodium Pyruvate, 1% Pen-Strep and 10% Fetal Calf Serum, and treated with 5 mM sodium butyrate for 24 h to increase receptor expression before harvesting. Cells were harvested by mechanical scraping, washed with Phosphate Buffered Saline, and stored at −80° C. in 10% DMSO in 1 mg/mil aliquots until used. Protein determination was made according to Lowry.
Receptor Binding Assays: The 5HT2A and D2L assays were conducted at 37° C. in a Tris buffer containing salts (50 mM Tris Buffer, pH 7.7; 120 mM NaCl; 5 mM KCl; 2 mM CaCl2; 1 mM MgCl2). Cell membranes (previously prepared and frozen) were rapidly thawed. Membranes were diluted to an appropriate concentration (to produce 100 μg protein/assay point for 5HT2A, and 58 μg protein/assay point for D2L) in Tris buffer and homogenized. Assays were conducted on 96-well plates, using 2.5 and 1 nM [^3H]N-methyl spiperone as radioligand for 5HT2A and D2L assays, respectively. Plates were incubated at 37° C. in a shaking water bath for 30 and 60 min, for 5HT2A and D2L, respectively. Nonspecific binding was defined using 100 μM methylsergide and eticlopride, for 5HT2A and D2L, respectively.
Assays were terminated by rapid filtration through Millipore MAFB or MAFC (5HT2C) filter plates (presoaked in 50 mM Tris HCl, pH 7.7, with 0.1% Brij) using a Millipore Cell Harvester. The filter plates were then washed with ice-cold 50 mM Tris buffer, pH 7.7, and allowed to dry overnight. 50 μl of Microscint scintillation cocktail were added and the plates were counted in a Packard Topcount scintillation counter.
IC50 and Ki calculations were performed using nonlinear regression one-site competition analysis (GraphPad, Prism), with top and bottom limits held constant at 0% and 100% inhibition, respectively. The percent inhibition at each drug concentration was the average of duplicate determinations. Except where indicated, each determination was performed 2 to 5 times.

Assay [2] concerns the target T2, 5HT2A receptor site (Mus musculus, UniProt P35363).
T2 construct: from tissue; host or cells: live male mice (whole animal)
Briefly: Head Twitch Assay (5-MeODMT induced head twitch). In kind it is in vivo. To be noted: for ED50: mouse, sc, dose blocking 5-MeODMT (30 mg/kg i.p.) head twitch in 50% of male mice; for % effect @ 3 mg/kg: 3 mg/kg sc. Here is the method:
This Example 177 illustrates the study of efficacy of the compounds of this invention at the 5HT2A receptor site in animal models.
5-MeODMT (5-Methoxy-N,N-dimethyltryptamine) Inhibition: Groups of male mice are administered test compounds at selected doses. At an appropriate interval thereafter, 5-MeODMT (dissolved in 0.5% ascorbic acid) is administered at a dose of 30 mg/kg i.p. Immediately after administration of 5-MeODMT, and continuing for the following 6 min, the number of head twitches for each animal is counted. […] The ED50 is calculated as the dose necessary to block head twitch in 50% of the test animals. All experiments are performed with at least 10 animals per condition.

T1 sequence (P28223 whole entry): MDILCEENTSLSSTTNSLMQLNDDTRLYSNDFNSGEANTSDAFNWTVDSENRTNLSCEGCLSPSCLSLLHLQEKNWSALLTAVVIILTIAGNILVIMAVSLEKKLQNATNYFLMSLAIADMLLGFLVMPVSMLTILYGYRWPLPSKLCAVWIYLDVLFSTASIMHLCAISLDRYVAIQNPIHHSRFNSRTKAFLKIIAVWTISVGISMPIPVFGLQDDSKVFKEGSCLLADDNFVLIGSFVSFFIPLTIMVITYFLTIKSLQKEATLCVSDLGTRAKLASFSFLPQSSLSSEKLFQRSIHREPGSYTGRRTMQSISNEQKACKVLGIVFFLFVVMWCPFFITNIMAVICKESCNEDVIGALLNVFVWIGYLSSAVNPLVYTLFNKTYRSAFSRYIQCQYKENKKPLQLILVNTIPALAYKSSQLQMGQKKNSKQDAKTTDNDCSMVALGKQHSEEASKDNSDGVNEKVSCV
T2 sequence (P35363 whole entry): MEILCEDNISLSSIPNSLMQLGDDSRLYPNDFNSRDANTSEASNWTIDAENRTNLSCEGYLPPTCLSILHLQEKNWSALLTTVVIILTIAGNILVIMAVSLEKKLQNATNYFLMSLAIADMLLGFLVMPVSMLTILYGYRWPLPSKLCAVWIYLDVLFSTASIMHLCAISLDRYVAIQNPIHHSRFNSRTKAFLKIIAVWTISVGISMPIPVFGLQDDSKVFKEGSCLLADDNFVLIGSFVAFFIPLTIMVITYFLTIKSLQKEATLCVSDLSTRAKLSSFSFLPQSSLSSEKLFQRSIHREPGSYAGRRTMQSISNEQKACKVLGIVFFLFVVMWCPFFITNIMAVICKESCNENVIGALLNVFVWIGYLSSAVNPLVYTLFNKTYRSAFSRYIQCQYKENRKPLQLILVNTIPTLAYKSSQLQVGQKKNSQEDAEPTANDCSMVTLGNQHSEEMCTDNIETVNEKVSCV

Regarding `CN(C)CCN(Cc1ccccc1)Cc1cccc(-c2ccc3[nH]c(=O)oc3c2)c1.Cl` [Example 3], the affinity in assay [1], expressed as Ki, was 0.9 nM. Further, the “% effect @ 1 mg/kg” value in assay [2] (1 mg/kg sc, head twitch, male mice) is reported as 100%. This compound also returned an ED50 in assay [2] below 1 mg/kg.
Consider `O=C(c1ccc(F)cc1)N(CCN1CCCC1)Cc1cc(-c2ccc3[nH]ccc3c2)ccc1F` [Example 20, 4-Fluoro-N-[2-fluoro-5-(1H-indol-5-yl)-benzyl]-N-(2-pyrrolidin-1-yl-ethyl)-benzamide], for which, in assay [1], the Ki was 0.32 nM. For the same compound, the ED50 in assay [2] was found to be 0.27 mg/kg.
With `O=C(c1ccc(F)cc1)N(CCN1CCCC1)Cc1cc(-c2ccc3[nH]c(=O)oc3c2)ccc1F` [Example 21], affinity in assay [1] was put at a Ki of 0.26 nM. Besides, the “% effect @ 3 mg/kg” value in assay [2] (head twitch, male mice) amounted to 60%. In assay [2], the ED50 is below 3 mg/kg.
Compound `Cc1cc2cc(-c3ccc(F)c(CN(CCN(C)C)C(=O)c4ccc(F)cc4)c3)ccc2[nH]1` [Example 23] yielded a Ki in assay [1] of 0.37 nM. The same compound had an ED50 in assay [2] of 0.16 mg/kg.
`CN(C)CCN(Cc1cc(-c2ccc3[nH]ccc3c2)ccc1F)C(=O)c1ccc(F)cc1` [Example 26] displayed a Ki in assay [1] of 0.68 nM. The same compound displayed an ED50 in assay [2] of 0.82 mg/kg.
Consider `CN1CCC(N(Cc2cccc(-c3ccc4[nH]ccc4c3)c2)C(=O)c2ccc(F)cc2)CC1` [Example 27], for which the affinity in assay [1], expressed as Ki, was 0.7 nM. Further, the ED50 in assay [2] was 0.59 mg/kg.
On the same counts, the results for `CN1CCC(N(Cc2cc(-c3ccc4[nH]ccc4c3)ccc2F)C(=O)c2ccc(F)cc2)CC1` [Example 34] are 1.25 nM and 1.09 mg/kg.
The compound `Fc1ccc([C@H]2CNCCN2Cc2cc(-c3ccc4[nH]ncc4c3)ccc2F)cc1` [Example 42, {4-Fluoro-3-[2S-(4-fluoro-phenyl)-piperazin-1-ylmethyl]-phenyl}-1H-indazole] came in with a Ki in assay [1] of 0.61 nM. The compound further registered an ED50 in assay [2] of 1.73 mg/kg.
In assay [2], `CC(=O)O.Fc1ccc(-c2ccc3[nH]ncc3c2)cc1CN1CCNC[C@@H]1c1cccs1` [Example 44] registered an ED50 of 0.54 mg/kg.
Turning to `Fc1ccc(-c2ccc3[nH]ncc3c2)cc1CN1CCNCC1c1cccs1` (centres unmarked) [Example 47], the inhibition constant (Ki) in assay [1] was 1.24 nM. The “% effect @ 3 mg/kg” value in assay [2] (head twitch, male mice) came out at 50%. Further, the ED50 in assay [2] is around 3 mg/kg.
`CC(=O)O.CN1CCN(Cc2cncc(-c3ccc4[nH]ccc4c3)c2)[C@@H](c2ccc(F)cc2)C1` [Example 91, 5-{5-[2S-(4-Fluoro-phenyl)-4-methyl-piperazin-1-ylmethyl]-pyridin-3-yl}-1H-indole acetate] came in with a Ki in assay [1] of 0.6 nM. In assay [2], the 50% effect level (ED50) was put at a dose of 0.41 mg/kg.
`CN1CCN(Cc2cc(-c3ccc4[nH]ccc4c3)ccc2F)[C@@H](c2ccc(F)cc2)C1` [Example 92, 5-{4-Fluoro-3-[2S-(4-fluoro-phenyl)-4-methyl-piperazin-1-ylmethyl]-phenyl}-1H-indole] returned an ED50 in assay [2] of 0.53 mg/kg.
Take `CN1CCN(Cc2cc(-c3ccc4[nH]ccc4c3)co2)[C@@H](c2ccc(F)cc2)C1.O=C(O)C(F)(F)F` [Example 94, 5-{5-[2S-(4-Fluoro-phenyl)-4-methyl-piperazin-1-ylmethyl]-furan-3-yl}-1H-indole; compound with trifluoro-acetate]: the “% effect @ 3 mg/kg” value in assay [2] (head twitch, male mice) is listed as 50%. This compound showed an ED50 in assay [2] of around 3 mg/kg.
On to `CC(=O)O.CN1CCN(Cc2cc(-c3ccc4[nH]c(=O)oc4c3)co2)[C@@H](c2ccc(F)cc2)C1` [Example 95, 6-{5-[2S-(4-Fluorophenyl)-4-methylpiperazine-1-ylmethyl]-furan-3-yl}-3H-benzoxazol-2-one], for which the affinity in assay [1] corresponds to a Ki of 1.9 nM. It took a dose of 0.5 mg/kg to reach the 50% effect level in assay [2] (ED50).
As for `CC(=O)O.CN1CCN(Cc2cncc(-c3ccc4[nH]c(=O)oc4c3)c2)[C@@H](c2ccc(F)cc2)C1` [Example 98, 6-{5-[2S-(4-Fluoro-phenyl)-4-methyl-piperazin-1-ylmethyl]-pyridin-3-yl}-3H-benzooxazol-2-one acetate], in assay [1], affinity was put at a Ki of 1.2 nM. The compound further returned an ED50 in assay [2] of 0.49 mg/kg.
The corresponding values for `CN(C)CCN(Cc1cc(-c2ccc3[nH]c(=O)oc3c2)ccc1F)C(=O)c1ccc(F)cc1` [Example 104, N-(2-Dimethylamino-ethyl)-4-fluoro-N-[2-fluoro-5-(2-oxo-2,3-dihydro-benzooxazol-6-yl)-benzyl]-benzamide] are 0.31 nM and 6.36 mg/kg.
`Fc1ccc([C@H]2CNCCN2Cc2cc(-c3ccc4[nH]ccc4c3)co2)cc1` [Example 115, 5-{5-[2S-(4-Fluoro-phenyl)-piperazin-1-ylmethyl]-furan-3-yl}-1H-indole] came in with a Ki in assay [1] of 2.88 nM.
Same read-out and setting: the figure for `Fc1ccc([C@H]2CNCCN2Cc2cc(-c3ccc4[nH]ncc4c3)co2)cc1` [Example 116, 5-{5-[2S-(4-Fluoro-phenyl)-piperazin-1-ylmethyl]furan-3-yl}-1H-indazole] is 1.79 nM.
Still for that read-out and setting: the figure for `O=c1[nH]c2ccc(-c3coc(CN4CCNC[C@@H]4c4ccc(F)cc4)c3)cc2o1` [Example 117, 6-{5-[2S-(4-Fluoro-phenyl)-piperazin-1-ylmethyl]-furan-3-yl}-3H-benzooxazol-2-one acetate] is 4.79 nM; for `CN1CCC(N(Cc2ccc(F)cc2)Cc2cc(-c3ccc4[nH]c(=O)oc4c3)co2)CC1` [Example 118, 6-(5-{[(4-Fluoro-benzyl)-(1-methyl-piperidin-4-yl)-amino]-methyl}-furan-3-yl)-3H-benzooxazol-2-one] it is 1.1 nM.
In assay [1], `CN1CCC(N(Cc2ccc(F)cc2)Cc2cc(-c3ccc4[nH]ncc4c3)co2)CC1` [Example 119, (4-Fluoro-benzyl)-[4-(1H-indazol-5-yl)-furan-2-ylmethyl]-(1-methyl-piperidin-4-yl)-amine] registered a Ki of 0.78 nM.
The same measure, in the same setting: the figure for `CN1CCN(Cc2cccc(-c3ccc4[nH]ccc4c3)c2)CC1` [Example 120, 5-[3-(4-Methyl-piperazin-1-ylmethyl)-phenyl]-1H-indole] is 65 nM; for `CN1CCCN(Cc2cccc(-c3ccc4[nH]ccc4c3)c2)CC1` [Example 121, 5-[3-(4-Methyl-[1,4]diazepan-1-ylmethyl)-phenyl]-1H-indole] it is 82 nM.
`O=C(c1ccc(F)cc1)N(CCN1CCCC1)Cc1cc(F)cc(-c2ccc3[nH]ccc3c2)c1` [Example 133, 4-Fluoro-N-[3-fluoro-5-(1H-indol-5-yl)-benzyl]-N-(2-pyrrolidin-1-yl-ethyl)-benzamide] had an ED50 in assay [2] of 0.92 mg/kg.
`CN(C)CCN(Cc1ccc(F)cc1)Cc1cc(-c2ccc3[nH]cc(C#N)c3c2)ccc1F` [Example 140, 5-(3-{[(2-Dimethylamino-ethyl)-(4-fluoro-benzyl)-amino]-methyl}-4-fluoro-phenyl)-1H-indole-3-carbonitrile trifluoro-acetate] yielded a Ki in assay [1] of 22.6 nM.
Turning to `CC(=O)O.CN1CCN(Cc2cc(-c3ccc4[nH]ncc4c3)ccc2F)[C@@H](c2cccs2)C1` [Example 159, 5-[4-Fluoro-3-(4-methyl-2R-thiophen-2-yl-piperazin-1-ylmethyl)-phenyl]-1H-indazole acetate], it took a dose of 0.04 mg/kg to reach the 50% effect level in assay [2] (ED50).
The same measure, in the same setting: as for `CN1CCN(Cc2cc(-c3ccc4[nH]ncc4c3)co2)[C@@H](c2ccc(F)cc2)C1` [Example 161, 5-{5-[2S-(4-Fluoro-phenyl)-4-methyl-piperazin-1-ylmethyl]-furan-3-yl}-1H-indazole], the figure is 0.16 mg/kg.
`CN1CCN(C(=O)c2cc(-c3ccc4[nH]ccc4c3)ccc2F)[C@@H](c2ccc(F)cc2)C1` [Example 171, [2-Fluoro-5-(1H-indol-5-yl)-phenyl]-[2S-(4-fluoro-phenyl)-4-methyl-piperazin-1-yl]-methanone] registered a Ki in assay [1] of 85 nM.
For `Fc1ccc([C@H]2CNCCN2Cc2cc(-c3ccc4[nH]ccc4c3)ccc2F)cc1` [Example 174, 5-{4-Fluoro-3-[2S-(4-fluoro-phenyl)-piperazin-1-ylmethyl]-phenyl}-1H-indole acetate], the Ki in assay [1] stood at 0.9 nM.
`CN1CCN(Cc2cc(-c3ccc4[nH]cc(C#N)c4c3)ccc2F)[C@@H](c2ccc(F)cc2)C1` [Example 175, 5-{4-Fluoro-3-[2S-(4-fluoro-phenyl)-4-methyl-piperazin-1-ylmethyl]-phenyl}-1H-indole-3-carbonitrile] had a Ki in assay [1] of 3.2 nM.
